Measured values from ChEMBL document CHEMBL3351492, “Novel 3,6-bis(imidazolidine)acridines as effective photosensitizers for photodynamic therapy” (Bioorg Med Chem, 2014).
pIC50: −log10 of the molar value. The source made the active and inactive calls. The calls are words filed in the database; no cut-off is given here.

Tests used:
[1] = tested on: A2780; assay: Cytotoxicity against human A2780 cells assessed as inhibition of cell viability for 72 hrs in dark by MTT assay; assay type: functional, cell-based; details: A2780, 72 h
[2] = tested on: A2780; assay: Induction of oxidative stress in human A2780 cells assessed as reactive oxygen species production at 0.5 uM for 1 hr in 1.05 J/cm'2 UV-A irradiation by DHE assay; assay type: functional, cell-based
[3] = tested on: A2780; assay: Cytotoxicity against human A2780 cells assessed as inhibition of cell viability for 48 hrs in dark by MTT assay; assay type: functional, cell-based; details: A2780, 48 h
[4] = tested on: L1210; assay: Cytotoxicity against mouse L1210 cells assessed as inhibition of cell viability for 48 hrs in 1.05 J/cm'2 UV-A irradiation by MTT assay; assay type: functional, cell-based; details: L1210, light or radiation study
[5] = tested on: A2780; assay: Cytotoxicity against human A2780 cells assessed as inhibition of cell viability for 72 hrs in 1.05 J/cm'2 UV-A irradiation by MTT assay; assay type: functional, cell-based; details: A2780, light or radiation study
[6] = tested on: A2780; assay: Cytotoxicity against human A2780 cells assessed as inhibition of cell viability for 48 hrs in 1.05 J/cm'2 UV-A irradiation by MTT assay; assay type: functional, cell-based; details: A2780, light or radiation study
[7] = tested on: A2780; assay: Genotoxicity in human A2780 cells assessed as DNA damage at 0.05 to 1 uM for 1 hr in 1.05 J/cm'2 UV-A irradiation measured after 12 hrs by comet assay; assay type: toxicity, cell-based; details: a2780, 1 h
[8] = tested on: L1210; assay: Cytotoxicity against mouse L1210 cells assessed as inhibition of cell viability for 72 hrs in 1.05 J/cm'2 UV-A irradiation by MTT assay; assay type: functional, cell-based; details: L1210, light or radiation study
[9] = tested on: A2780; assay: Drug uptake in human A2780 cell mitochondria assessed per focused cells at 3 uM irradiated for 1 hr followed by incubated with 0.1 uM MitoRed for 15 mins; assay type: ADME, cell-based; details: a2780, 1 h
[10] = Cytotoxicity against mouse NIH/3T3 cells assessed as inhibition of cell viability for 48 hrs in dark by MTT assay; assay type: cell-based; details: NIH3T3, 48 h
[11] = tested on: A2780; assay: Drug uptake in human A2780 cell mitochondria assessed per focused cells at 0.5 uM for 1 hr in dark by incubated with 0.1 uM MitoRed for 15 mins; assay type: ADME, cell-based; details: a2780, 1 h
[12] = tested on: A2780; assay: Cell cycle arrest in human A2780 cells assessed as cells at S phase at 1 uM for 1 hr in 1.05 J/cm'2 UV-A irradiation measured after 4 hrs by PI staining/flow cytometry; assay type: functional
[13] = tested on: A2780; assay: Induction of apoptosis in human A2780 cells assessed as volume and condensation of DNA chromatin at 1 uM for 1 hr in 1.05 J/cm'2 UV-A irradiation measured after 4 hrs by fluorescence microscopy; assay type: functional, cell-based
[14] = tested on: A2780; assay: Drug uptake in human A2780 cell nucleus at 0.5 uM irradiated for 1 hr followed by incubated with 0.1 uM SytoRed for 35 mins; assay type: ADME, cell-based; details: a2780, 1 h
[15] = tested on: A2780; assay: Drug uptake in human A2780 cell nucleus at 3 uM irradiated for 1 hr followed by incubated with 0.1 uM SytoRed for 35 mins; assay type: ADME, cell-based; details: a2780, 1 h
[16] = tested on: A2780; assay: Cell cycle arrest in human A2780 cells assessed as cells at sub G0 phase at 1 uM after 4 hrs in dark by PI staining/flow cytometry; assay type: functional
[17] = tested on: A2780; assay: Drug uptake in human A2780 cell mitochondria assessed per focused cells at 0.5 uM irradiated for 1 hr followed by incubated with 0.1 uM MitoRed for 15 mins; assay type: ADME, cell-based; details: a2780, 1 h
[18] = tested on: A2780; assay: Induction of apoptosis in human A2780 cells assessed as effect on cell morphology at 1 uM for 1 hr in dark measured after 4 hrs by fluorescence microscopy; assay type: functional, cell-based
[19] = tested on: A2780; assay: Drug uptake in human A2780 cell autophagic vacoules at 0.5 uM irradiated for 1 hr followed by incubated with LysoTracker relative to non-irradiated cellsin presence of MDC; assay type: ADME, cell-based; details: a2780, 1 h
[20] = tested on: A2780; assay: Drug uptake in human A2780 cell lysosome at 0.5 uM irradiated for 1 hr followed by incubated with LysoTracker relative to non-irradiated cells; assay type: ADME, cell-based; details: a2780, 1 h
[21] = Cytotoxicity against mouse NIH/3T3 cells assessed as inhibition of cell viability for 48 hrs in 1.05 J/cm'2 UV-A irradiation by MTT assay; assay type: cell-based; details: NIH3T3, light or radiation study
[22] = tested on: A2780; assay: Induction of apoptosis in human A2780 cells assessed as DNA ladder formation at 1 uM after 4 hrs in dark by agarose gel; assay type: functional, cell-based
[23] = tested on: A2780; assay: Drug uptake in human A2780 cell lysosome assessed per focused cells at 3 uM irradiated for 1 hr followed by incubated with LysoTracker; assay type: ADME, cell-based; details: a2780, 1 h
[24] = tested on: A2780; assay: Cell cycle arrest in human A2780 cells assessed as cells at sub G0 phase at 1 uM for 1 hr in 1.05 J/cm'2 UV-A irradiation measured after 4 hrs by PI staining/flow cytometry; assay type: functional
[25] = Cytotoxicity against mouse NIH/3T3 cells assessed as inhibition of cell viability for 72 hrs in 1.05 J/cm'2 UV-A irradiation by MTT assay; assay type: cell-based; details: NIH3T3, light or radiation study
[26] = tested on: A2780; assay: Induction of apoptosis in human A2780 cells assessed as DNA ladder formation at 1 uM for 1 hr in 1.05 J/cm'2 UV-A irradiation measured after 4 hrs by agarose gel; assay type: functional, cell-based
[27] = tested on: A2780; assay: Induction of apoptosis in human A2780 cells assessed as blebbing of cell membrane at 1 uM for 1 hr in 1.05 J/cm'2 UV-A irradiation measured after 24 hrs by fluorescence microscopy; assay type: functional, cell-based
[28] = Cytotoxicity against mouse NIH/3T3 cells assessed as inhibition of cell viability for 72 hrs in dark by MTT assay; assay type: cell-based; details: NIH3T3, 72 h

SMILES | pIC50 [1] | Activity [2] | pIC50 [3] | pIC50 [4] | pIC50 [5] | pIC50 [6] | Activity [7] | pIC50 [8] | also measured
CCCCCCN1C(=O)CN/C1=N\c1ccc2cc3ccc(/N=C4\NCC(=O)N4CCCCCC)cc3nc2c1.Cl | 5.02 | Active | 4.80 | 6.11 | 5.90 | 5.80 | Non-toxic | 6.19 | 
CCCCCN1C(=O)CN/C1=N\c1ccc2cc3ccc(/N=C4\NCC(=O)N4CCCCC)cc3nc2c1.Cl | 4.86 | Active | 4.71 | 6.19 | 5.96 | 5.84 | Non-toxic | 6.23 | Drug uptake [9]: 7%; pIC50 [10]: < 4.30; Drug uptake [11]: 7%; Activity [12]: 43%; Activity [13]: Active; Drug uptake [14]: Not Active; Drug uptake [15]: Not Active; Activity [16]: 1.42%; Drug uptake [17]: 2%; Activity [18]: inactive; Drug uptake [19]: Active; Drug uptake [20]: 24%; pIC50 [21]: < 4.52; Activity [22]: inactive; Drug uptake [23]: 6%; Activity [24]: 7.69%; pIC50 [25]: 4.55; Activity [26]: Active; Activity [27]: Active; pIC50 [28]: < 4.30
Nc1ccc2cc3ccc(N)cc3nc2c1 | 6.74 |  | 6.32 |  | 7.00 | 6.48 |  |  | 
